In patent US20250020635A1, “ASSAY METHODS AND USES THEREOF FOR SCREENING ALZHEIMER'S DISEASE TREATMENT COMPOUNDS” (priority 2023, published 2025):

Tests used:
BV2 cells = assay: Microglial phagocytosis/cell health high-content assay, BV2 cells; format: cell-based; settings: for Ave. % Cell Count @ 60 uM BV2 cells / Ave. % Phagocytosis @ 60 uM BV2 cells: 48 hrs, compared to control
Procedure: The assay introduced here is a simplified cellular imaging assay without any fixation and washing steps, while producing multiparameter measurements with high capacity using a 384-well plate format. The assay procedures include plating cells on day 1, incubating cell plates overnight before treating cells on day 2, adding pHrodo™-myelin/membrane debris to cell plates on day 3, and 20 hr later, staining cell nuclei with Hoechst-33342 for 30 min before performing high-content imaging on day 4. Three selected parameters are measured from cells: 1) mean total fluorescence intensity per cell of pHrodo™-myelin/membrane debris in phagocytosis vesicles to quantify phagocytosis; 2) cell counts per well to quantify treatment effects on proliferation and cell death; and 3) average nuclear intensity to quantify treatment-induced nuclear changes such as in apoptosis. The assay has been used on HMC3 cells (an immortalized human microglial cell line), BV2 cells (an immortalized mouse microglial cell line), and primary microglia isolated from mouse brains. For initial assay attempts, we recommend using HMC3 cells available from the ATCC.
All collected raw data are normalized to the untreated control with following formula: % of control=100×(X−Min)/(Max−Min). Factors in the formula are: X is raw data from a treated well, Max is an average measurement from pHrodo™-myelin seeded but untreated wells, and Min is an average measurement from no pHrodo™-myelin untreated wells. Normalized data are used for curve fitting that is done with the variable slope (four parameters) using the Prism software.
To ensure that the measurements reflect the steady state of compound treatment effects and cell health, the assay was set with a total compound treatment time of 48 hr, including pHrodo™-myelin/membrane debris seeding performed 20-24 hr after compound addition. […] Among many available quantitative measurements from the image analysis, we selected three parameters for the assay:
1) The mean total intensity of phagocytosis vesicles/cell—to measure phagocytosis. There are multiple parameters generated from the image analysis, including phagocytosis vesicle area, number, and various fluorescence intensity measurements. Comparing these parameters, the total fluorescence intensity of vesicles/cell is the most sensitive one and was chosen for quantifying phagocytosis.
2) The total cell counts—to measure overall cell viability, which is affected by proliferation and cell death. We chose to take 4 images/well (with the 10× objective lens) that cover about 50% of the total area of a well in a 384-well plate to represent cell count of the well.
3) The average nuclear intensity—to measure drug-induced apoptosis, with high signal indicating nuclear condescension (a sign of early apoptosis) and low signal indicating DNA degradation (a sign of later apoptosis, when activated caspases digest DNA).
A phenotypic high-content imaging assay with simultaneous measurements of phagocytosis, cell number, and nuclear intensity was used to assess both cellular pharmacology and cell health. Model cell lines BV2 (immortalized mouse microglia, a gift from Dr. Michelle Block's laboratory at IUSM) and HMC3 (immortalized human microglia, obtained from ATCC, CRL-3304) were used to provide adequate throughput. Cells were cultured in DMEM GlutaMax media (ThermoFisher) containing 10% FBS and Pen-Strep in a 37° C. 5% CO2 incubator, plated in Corning Falcon 384 well Optilux Black and clear bottom plates: 400 cells/45 μl/well (BV2 cells), 600 cells/45 μl/well (HMC3 cells) and 2000 cell/45 μl/well (primary cells), and treated with 10× serially diluted compounds (60 μM-3 nM) for 48 hrs at 37° C. […]

PLCγ2 enzyme = biological target: T1, PLCγ2 enzyme (Homo sapiens, UniProt P16885); assay: Liposomal biochemical assay with fluorogenic probe XY-69; settings: for increase in PLCγ2 activity (change in slope relative to control): dose response, liposomes with XY-69
T1 sequence (P16885 1-1265): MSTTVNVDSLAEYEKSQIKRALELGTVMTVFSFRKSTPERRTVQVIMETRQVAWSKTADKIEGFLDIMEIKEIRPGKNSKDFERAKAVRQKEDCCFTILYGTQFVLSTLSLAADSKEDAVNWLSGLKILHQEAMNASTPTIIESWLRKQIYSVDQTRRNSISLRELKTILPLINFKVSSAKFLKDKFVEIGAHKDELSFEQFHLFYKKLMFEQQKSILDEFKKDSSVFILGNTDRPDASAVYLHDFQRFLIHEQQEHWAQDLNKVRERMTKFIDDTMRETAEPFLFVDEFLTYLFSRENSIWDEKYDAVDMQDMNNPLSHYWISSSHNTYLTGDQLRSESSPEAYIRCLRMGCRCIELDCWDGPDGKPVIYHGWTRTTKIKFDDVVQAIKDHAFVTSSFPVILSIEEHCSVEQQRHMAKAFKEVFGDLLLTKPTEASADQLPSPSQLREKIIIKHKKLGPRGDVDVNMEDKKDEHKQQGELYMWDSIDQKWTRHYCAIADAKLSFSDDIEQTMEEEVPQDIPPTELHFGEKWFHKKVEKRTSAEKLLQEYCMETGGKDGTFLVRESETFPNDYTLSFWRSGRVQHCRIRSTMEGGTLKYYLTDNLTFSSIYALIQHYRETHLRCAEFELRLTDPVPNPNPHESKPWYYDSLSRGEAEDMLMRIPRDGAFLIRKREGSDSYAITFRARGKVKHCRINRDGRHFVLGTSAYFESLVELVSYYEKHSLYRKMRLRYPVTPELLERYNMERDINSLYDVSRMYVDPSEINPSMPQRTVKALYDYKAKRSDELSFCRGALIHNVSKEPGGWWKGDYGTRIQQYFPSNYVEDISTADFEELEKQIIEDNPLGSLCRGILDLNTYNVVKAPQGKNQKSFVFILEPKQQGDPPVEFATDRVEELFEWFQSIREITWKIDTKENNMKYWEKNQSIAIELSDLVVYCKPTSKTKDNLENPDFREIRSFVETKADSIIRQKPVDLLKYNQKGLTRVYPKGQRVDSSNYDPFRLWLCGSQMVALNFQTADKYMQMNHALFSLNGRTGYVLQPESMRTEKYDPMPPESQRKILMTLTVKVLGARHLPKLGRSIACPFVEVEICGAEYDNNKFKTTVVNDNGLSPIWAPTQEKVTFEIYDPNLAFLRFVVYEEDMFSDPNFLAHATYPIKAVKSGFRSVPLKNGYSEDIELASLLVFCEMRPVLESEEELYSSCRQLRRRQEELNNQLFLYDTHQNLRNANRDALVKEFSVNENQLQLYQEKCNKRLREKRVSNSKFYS
From the text: Sondek and coworkers have described an assay for PLCγ1 activity in the presence of liposomes as a model for activity at the cell membrane where the natural ligand is located.^36 The assay was redeveloped and reoptimized for PLCγ2 at the Purdue Institute for Drug Discovery. Liposomes containing XY-69 (purchased from Avanti Polar Lipids, cat. #850168) were generated using phosphatidylinositol 4,5-bisphosphate (PIP2) and 1-stearoyl-2-arachidonoyl-sn-glycero-3-phosphatidylethanolamine (lipidPE). The PLCγ2 enzyme was exposed to this solution and, after treatment with the compounds of interest, the fluorescence intensity (ex: 485 nm; em: 520 nm) was recorded every 2 min for 120 min (FIG. 19). The slope of the linear portion of the curves (up to 50 min) was compared to control giving a relative rate of reaction. Dose dependent curves of a representative sample of the compounds tested are shown (FIG. 20A-20B).

SMILES	Ave. % Cell Count @ 60 uM BV2 cells (BV2 cells) [%]	Ave. % Phagocytosis @ 60 uM BV2 cells (BV2 cells) [%]	increase in PLCγ2 activity (change in slope relative to control) (PLCγ2 enzyme)	increase in PLCγ2 activity (change in slope relative to control) (PLCγ2 enzyme; listed as m-3M3FBS)	enzymatic activation, single dose (PLCγ2 enzyme; 100 μM)	phagocytosis increase against cell count decline (BV2 cells; HMC3 and BV2 cells (Table 6, FIGS. 21, 22))
O=S(=O)(Nc1ccc(Br)cc1F)c1cccs1 [Compound 8]	86	114	–	–	–	–
Cc1cc(C)c(S(=O)(=O)Nc2cccc(C(F)(F)F)c2)c(C)c1 [Compound 1, 2,4,6-trimethyl-N-(meta-3-trifluoromethyl-phenyl)-benzenesulfonamide, reference compound]	2	0.05	among the highest increases of all analogs tested	highest increase in response	–	–
Cc1cc(C)c(S(=O)(=O)NC2CCCNC2)c(C)c1 (stereo not shown) [Compound 11]	63	225	–	–	no enzymatic activation	moderate degree of potential cytotoxicity
Cc1cc(C)c(S(=O)(=O)Nc2ccccc2C(F)(F)F)c(C)c1 [Compound 2, o-3M3FBS, reference compound]	104	104	much lower, though it still showed a statistically significant increase in activation	–	–	–
